This is an account of results in patent US20110014273A1, “Method of Treating BCC” (priority 2009, published 2011).

A word on the MIC: it is the lowest concentration that inhibits growth of the organism. Lower therefore signals greater potency.

In brackets after ≈: the same amount, converted by molar mass.

Assay [1] concerns P. aeruginosa ATCC 27853. Nature of the assay: Susceptibility testing (MIC at 35° C.). Type of assay: cell-based. Particulars: Pseudomonas aeruginosa, ATCC27853. The method, then: (§1) From a previous susceptibility testing experiment, the liposomal test batches and control tobramycin MIC values are shown in Table 5 below. The time-kill test is conducted using the test agents shown in bold print in Table 5: [table]

For assay [2], the system named is P. aeruginosa MMX 1609. The experiment in a line: Susceptibility testing (MIC at 35° C.). The following applies: Pseudomonas aeruginosa, MMX1609. In kind it is cell-based. The method, then:
as §1

Assay [3] concerns B. cepacia ATCC 25608. Nature of the assay: Susceptibility testing (MIC at 35° C.). Type of assay: cell-based. The following applies: Burkholderia cepacia, ATCC25608. The method, then:
as §1

The subject of assay [4] is P. aeruginosa MMX 1609. The following applies: at 35° C.; cited from earlier work.
The subject of assay [5] is B. cepacia ATCC 25608. The following applies: at 35° C.; cited from earlier work.
Assay [6] concerns P. aeruginosa ATCC 27853. Particulars: at 35° C.; cited from earlier work.

Regarding `NC[C@H]1O[C@H](O[C@H]2[C@H](O)[C@@H](O[C@H]3O[C@H](CO)[C@@H](O)[C@H](N)[C@H]3O)[C@H](N)C[C@@H]2N)[C@H](N)C[C@@H]1O` [Free tobramycin (Sigma), tobramycin], the MIC against P. aeruginosa ATCC 27853 [1] is 0.5 µg/mL (≈ 1.07 µM); with P. aeruginosa MMX 1609 [2], 0.5 µg/mL (≈ 1.07 µM); in the assay on B. cepacia ATCC 25608 [3] it was more than 64 µg/mL.
As for `NC[C@H]1O[C@H](O[C@H]2[C@H](O)[C@@H](O[C@H]3O[C@H](CO)[C@@H](O)[C@H](N)[C@H]3O)[C@H](N)C[C@@H]2N)[C@H](N)C[C@@H]1O` [tobramycin], the “MIC, CLSI QC range” value was “(0.25-1) μg/mL” in the assay with P. aeruginosa MMX 1609 [4], “(0.12-1) μg/mL” in the assay with B. cepacia ATCC 25608 [5] and 0.25 to 1 µg/mL in the assay on P. aeruginosa ATCC 27853 [6].
